Assays:
TyrT DNA fragment = experiment: DNA cleavage assay, TyrT fragment; assay type: biochemical
Protocol: The ability of 13 and of a series of compounds to cleave double-stranded DNA was investigated using a modification of the previously established DNA footprinting assay (34). Following an overnight incubation of the ligand-DNA complexes, the mixture was mixed with strand separation buffer containing 10 mM EDTA, 10 mM NaOH, 0.1% bromophenol blue, 80% formamide and incubated at 100° C. for 3 min. The mixture was then immediately cooled on ice and run on an 8% denaturing gel. […] Using the GA marker, these additional bands were identified as cleavage products produced by 13 at certain A sites of the DNA fragment.
The preparation of the TyrT DNA fragment (FIG. 8) and HexARev DNA fragment (FIG. 15) have been previously described (34). Briefly, the sequence which had been cloned into the BamHI site of pUC18 was obtained by cutting with HindIII and EcoRI. Radiolabelled DNA fragments were prepared by filling in the 3′-end of the HindIII site with [α-^32P]dATP using Klenow DNA polymerase (exo-).
The radiolabelled DNA fragment was separated from the remainder of the plasmid DNA on a 6% non-denaturing polyacrylamide gel. The gel (20 cm long, 0.3 mm thick) was run at 400 V in 1×TBE running buffer for about 1-2 h, until the bromophenol blue had run most of the way down the gel. […]

[1] = system: three fluorescently labelled DNA sequences shown in FIG. 17; experiment: FRET DNA melting, the three DNA sequences shown in FIG. 17 together; assay type: binding; conditions: different concentrations, all three sequences, vs control DNA
From the text: Further FRET DNA melting studies were undertaken on a number of molecules using three fluorescently labelled sequences. The sequences (FIG. 17) were designed to provide additional evidence that the series can form inter- and intrastrand cross-links. Inosines were inserted in place of traditional DNA bases in some cases to limit the number of binding sites available for the compounds to interact with. The short duplexes used in this FRET study are relatively unstable in the duplex form with a melting temperature below 30° C. so that, in the absence of ligand, a large part of the melting occurs below the starting temperature of the experiment. […] Increasing concentrations of 13 cause a greater amount of the melting transition to appear at the higher temperature (i.e. a greater number of the DNA molecules are cross-linked). A greater effect for 5′-AIIAGAITTTI′-3′ can be observed at lower concentrations of 13.
Oligonucleotides were obtained from ATDbio (Southampton, UK) in lyophilised form. They were labelled with a fluorophore molecule (F=fluorescein) at the 5′-end and a quencher molecule (Q=dabcyl) at the 3′-end of the complementary strand. Each oligonucleotide was dissolved in distilled H2O to form stock solutions of 100 PM. Working solutions of 5 μM were prepared by diluting the stock solution with distilled H2O.
The following buffers were used: 250 mM phosphate buffer pH 7.4 (consisting of sodium dihydrogen phosphate and sodium phosphate diluted in distilled H2O) and 5 M sodium chloride buffer. A11 buffers and distilled H2O were filtered through a […] filter prior to use.
For the FRET experiments a stock solutions were prepared by dissolving compound (such as compound 13) in DMSO to give a concentration of 10 mM. From this stock solution, working solutions of the desired concentration were prepared by diluting the stock solution with distilled H2O.
The reaction mixture was comprised of 4 μL of 250 mM phosphate buffer (final concentration of 50 mM), 4 μL flourophor and 4 μL quencher molecule of the appropriate oligonucleotide for a final concentration of 0.2 PM, 4 μL 5 M sodium chloride (final concentration of 1 M NaCl), and 4 μL of distilled H2O. This mixture was heated in an Eppendorf tube at 90° C. for 1 min and slowly cooled down to room temperature. This process was carried out to anneal the single strands to double-stranded DNA. Following this, 4 μL of the ligand was added in the desired concentration and the mixture incubated overnight either at room temperature or 4° C. A control sample of DNA only was prepared by mixing 4 μL 250 mM phosphate buffer (final concentration of 50 mM) with 4 μL fluorophore-labelled and 4 μL quencher-labelled oligonucleotides (of the appropriate sequence) to give a final concentration of 0.2 PM, 4 μL 5 M sodium chloride (final concentration of 1 M NaCl) and 4 μL distilled H2O. This mixture was analysed without prior annealing.
Fluorescence melting profiles were measured using a Roche LightCycler using a total reaction volume of 20 μL. Initially, the samples were denatured by heating to 95° C. at a rate of 1° C. min^−1. The samples were then maintained at 95° C. for 5 min before annealing by cooling to 25° C. at 1° C. min^−1. The samples were then held at 25° C. for a further 5 min and finally melted by heating to 95° C. at 1° C. min^−1. Annealing steps and melting steps were all recorded and changes in fluorescence were measured at 520 nm.
Tm values were obtained from the first derivates of the melting profiles using the Roche LightCycler software.

For `COc1cc2c(cc1OCCCC(=O)N1C[C@@H](CCl)c3c1cc(O)c1ccccc31)N=C[C@@H]1CCCCN1C2=O` [Compound 13, (S)-3-(4-((S)-1-(Chloromethyl)-5-hydroxy-1,2-dihydro-3H-benzo[e]indol-3-yl)-4-oxobutoxy)-2-methoxy-7,8,9,10-tetrahydrobenzo[e]-pyrido[1,2-a][1,4]diazepin-12(6aH)-one], the “number of preferred sites observed in the TyrT DNA fragment” value (TyrT DNA fragment; cleavage at A sites) was “three” and the “cleavage of TyrT DNA fragment” value (TyrT DNA fragment; overnight incubation, 100° C. for 3 min, 8% denaturing gel (FIG. 11)) was “distinct cleavage patterns”.

`COc1cc2c(cc1OCc1cccc(CC(=O)N3C[C@@H](CCl)c4c3cc(O)c3ccccc43)c1)N=C[C@@H]1CCCCN1C2=O` [Compound 42, (S)-3-((3-(2-((S)-1-(Chloromethyl)-5-hydroxy-1,2-dihydro-3H-benzo[e]indol-3-yl)-2-oxoethyl)benzyl)oxy)-2-methoxy-7,8,9,10-tetrahydrobenzo[e]pyrido[1,2-a][1,4]diazepin-12(6aH)-one] was tested, and the “effect on melting temperature / DNA stabilisation” value [1] was “increases significantly”.
